The assay has as its system BDF1 mice, B16 melanoma ip, median survival T/C. The experiment in a line: NCI In Vivo Anticancer Drug Screen. Data for tumor model B16 Melanoma (intraperitoneal) in B6D2F1 (BDF1) mice. To be noted: endpoint: median survival time, higher = longer survival. In a few lines: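 Each result divides a survival or tumor-size measurement in the compound-treated group by the same measurement in the vehicle group.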

Where [1] appears, read: dose: 6.25 mg/kg/injection, schedule: Q01DX009 (ip), vehicle: saline.
The mark [2] stands for this setting: dose: 25.0 mg/kg/injection, schedule: Q01DX009 (ip), vehicle: Klucel (hydroxypropylcellulose) (HPC).
[3] abbreviates: dose: 25.0 mg/kg/injection, schedule: Q01DX009 (ip), vehicle: saline.
Setting [4] is: dose: 12.5 mg/kg/injection, schedule: Q01DX009 (ip), vehicle: saline.
Where [5] appears, read: dose: 75.0 mg/kg/injection, schedule: Q01DX009 (ip), vehicle: Klucel (hydroxypropylcellulose) (HPC).
[6] abbreviates: dose: 150.0 mg/kg/injection, schedule: Q01DX009 (ip), vehicle: Klucel (hydroxypropylcellulose) (HPC).
Setting [7] is: dose: 300.0 mg/kg/injection, schedule: Q01DX009 (ip), vehicle: Klucel (hydroxypropylcellulose) (HPC).
The mark [8] stands for this setting: dose: 50.0 mg/kg/injection, schedule: Q01DX009 (ip), vehicle: saline.
Where [9] appears, read: dose: 50.0 mg/kg/injection, schedule: Q01DX009 (ip), vehicle: Klucel (hydroxypropylcellulose) (HPC).
Where [10] appears, read: dose: 100.0 mg/kg/injection, schedule: Q01DX009 (ip), vehicle: Klucel (hydroxypropylcellulose) (HPC).
Setting [11] is: dose: 100.0 mg/kg/injection, schedule: Q04DX003 (ip), vehicle: Klucel (hydroxypropylcellulose) (HPC).
Setting [12] is: dose: 200.0 mg/kg/injection, schedule: Q04DX003 (ip), vehicle: Klucel (hydroxypropylcellulose) (HPC).
Where [13] appears, read: dose: 400.0 mg/kg/injection, schedule: Q04DX003 (ip), vehicle: Klucel (hydroxypropylcellulose) (HPC).
[14] abbreviates: dose: 12.5 mg/kg/injection, schedule: Q01DX009 (ip), vehicle: Klucel (hydroxypropylcellulose) (HPC).
Where [15] appears, read: dose: 200.0 mg/kg/injection, schedule: Q01DX009 (ip), vehicle: Klucel (hydroxypropylcellulose) (HPC).
Setting [16] is: dose: 100.0 mg/kg/injection, schedule: Q01DX009 (ip), vehicle: saline.
Setting [17] is: dose: 200.0 mg/kg/injection, schedule: Q01DX009 (ip), vehicle: saline.
Where [18] appears, read: dose: 12.5 mg/kg/injection, schedule: Q01DX009 (ip), vehicle: saline with Tween-80.
The mark [19] stands for this setting: dose: 25.0 mg/kg/injection, schedule: Q01DX009 (ip), vehicle: saline with Tween-80.
[20] abbreviates: dose: 50.0 mg/kg/injection, schedule: Q01DX009 (ip), vehicle: saline with Tween-80.
Where [21] appears, read: dose: 100.0 mg/kg/injection, schedule: Q01DX009 (ip), vehicle: saline with Tween-80.
[22] abbreviates: dose: 200.0 mg/kg/injection, schedule: Q01DX009 (ip), vehicle: saline with Tween-80.

Where “and” joins values, the source holds several entries; their conditions need not be identical. Equal values may be shown once. Inconclusive results and toxic doses are left out.

Regarding `COC12C(COC(=O)NCCO)C3=C(C(=O)C(C)=C(N)C3=O)N1CC1NC12` (centres undefined), the T/C was 98 % of control (dose: 1.56 mg/kg/injection, schedule: Q01DX009 (ip), vehicle: Klucel (hydroxypropylcellulose) (HPC)); 116 % of control and 120 % of control and 124 % of control (dose: 3.12 mg/kg/injection, schedule: Q01DX009 (ip), vehicle: Klucel (hydroxypropylcellulose) (HPC)); 119 % of control under setting [1]; 88 % of control and 180 % of control and 209 % of control under setting [2]; 94 % of control under setting [3].

For the compound `CCCCCCCCCCCCCCCC(=O)OCC1OC(n2ccc(N)nc2=O)C(O)C1O` (centres undefined), the T/C (dose: 1.0 mg/kg/injection, schedule: Q01DX009 (ip), vehicle: saline with Tween-80) was 103 % of control; the T/C (dose: 2.0 mg/kg/injection, schedule: Q01DX009 (ip), vehicle: saline with Tween-80) was 114 % of control; the T/C (dose: 2.5 mg/kg/injection, schedule: Q01DX001 (ip), vehicle: saline with Tween-80) was 99 % of control; the T/C (dose: 4.0 mg/kg/injection, schedule: Q01DX009 (ip), vehicle: saline with Tween-80) is 116 % of control; the T/C (dose: 5.0 mg/kg/injection, schedule: Q01DX001 (ip), vehicle: saline with Tween-80) is 100 % of control; the T/C (dose: 10.0 mg/kg/injection, schedule: Q01DX001 (ip), vehicle: saline with Tween-80) is 110 % of control. For the same compound, the T/C runs as follows: (dose: 20.0 mg/kg/injection, schedule: Q01DX001 (ip), vehicle: saline with Tween-80) 104 % of control; (dose: 25.0 mg/kg/injection, schedule: Q04DX003 (ip), vehicle: saline with Tween-80) 122 % of control; (dose: 30.0 mg/kg/injection, schedule: Q01DX009 (ip), vehicle: saline with Tween-80) 170 % of control; (dose: 37.5 mg/kg/injection, schedule: Q01DX001 (ip), vehicle: saline) 152 % of control; (dose: 75.0 mg/kg/injection, schedule: Q01DX001 (ip), vehicle: saline) 186 % of control.

Take `CCCC(C(=O)OCCN(CC)CC)(c1ccccc1)c1ccccc1`: the T/C was 95 % of control (dose: 3.12 mg/kg/injection, schedule: Q01DX009 (ip), vehicle: saline); 102 % of control under setting [1]; 100 % of control under setting [4]; 97 % of control under setting [3].

With `CC1CCC2C1C1C(CCC2(C)O)C1(C)C` (centres undefined), the T/C is, setting by setting: under setting [5], 97 % of control; under setting [6], 94 % of control; under setting [7], 97 % of control.

As for `CC(C)OCc1c(N)nc(=S)[nH]c1C(=O)O`, the T/C under setting [3] is 92 % of control and the T/C under setting [8] was 86 % of control.

For the compound `N#C/C(=C\c1ccncc1)c1csc2ccccc12`, the T/C is 88 % of control under setting [9] and 89 % of control under setting [10].

Turning to `C=CCOP(=O)(OCC=C)OCC=C`, the T/C runs as follows: under setting [2], 96 % of control; under setting [9], 100 % of control.

For the compound `Cc1cc(Cl)ccc1NC(=O)c1ccc(Cl)cc1Cl`, the T/C under setting [11] is 100 % of control, the T/C under setting [12] was 97 % of control and the T/C under setting [13] is 97 % of control.

Turning to `CCCC[S+](CCCC)CC(=O)c1ccc(-c2ccccc2)cc1`, the T/C is, setting by setting: (dose: 1.56 mg/kg/injection, schedule: Q01DX009 (ip), vehicle: saline) 110 % of control; (dose: 3.13 mg/kg/injection, schedule: Q01DX009 (ip), vehicle: saline) 96 % of control; under setting [1], 95 % of control; under setting [4], 94 % of control; under setting [3], 105 % of control.

In the case of `O=S(=O)(SC(S(=O)(=O)c1ccccc1)S(=O)(=O)c1ccccc1)c1ccccc1`, the T/C runs as follows: under setting [14], 99 % of control; under setting [2], 99 % of control; under setting [9], 105 % of control; under setting [10], 107 % of control; under setting [15], 90 % of control.

Regarding `CCCCCCCCCCCCCCCCCCNC(=O)Nc1c(C)cc(C)cc1C`, the T/C (dose: 100.0 mg/kg/injection, schedule: Q01DX009 (ip), vehicle: gum acacia) is 88 % of control.

As for `Nc1ncc(N)c(N)n1`, the T/C under setting [8] was 102 % of control, the T/C under setting [16] is 112 % of control and the T/C under setting [17] is 108 % of control.

For `CC(C)N(C(=O)Nc1ccccc1Cl)c1ccccc1`, the T/C is 89 % of control under setting [10]; 91 % of control under setting [15]; 92 % of control (dose: 400.0 mg/kg/injection, schedule: Q01DX009 (ip), vehicle: Klucel (hydroxypropylcellulose) (HPC)).

Regarding `C(COCCOCC1CO1)OCCOCC1CO1` (centres undefined), the T/C was 101 % of control under setting [18]; 105 % of control under setting [19]; 103 % of control under setting [20]; 107 % of control under setting [8]; 109 % of control under setting [21]; 108 % of control and 110 % of control under setting [16]. Also, the T/C runs as follows: under setting [22], 99 % of control; under setting [17], 86 % of control.

On to `OC(c1ccccc1)(c1c2ccccc2cc2ccccc12)C1CCC1` (centres undefined), for which the T/C runs as follows: under setting [5], 100 % of control; under setting [6], 102 % of control; under setting [7], 91 % of control.

With `CC(=O)CC(=O)Nc1ncccc1C`, the T/C runs as follows: (dose: 25.0 mg/kg/injection, schedule: Q01DX009 (ip), vehicle: carboxymethylcellulose (CMC)) 111 % of control; (dose: 50.0 mg/kg/injection, schedule: Q01DX009 (ip), vehicle: carboxymethylcellulose (CMC)) 106 % of control; (dose: 100.0 mg/kg/injection, schedule: Q01DX009 (ip), vehicle: carboxymethylcellulose (CMC)) 107 % of control.

Take `OC(c1ccccc1)C1(c2ccccc2)OCCO1` (centres undefined): the T/C is, setting by setting: under setting [21], 100 % of control; under setting [22], 95 % of control; (dose: 400.0 mg/kg/injection, schedule: Q01DX009 (ip), vehicle: saline with Tween-80) 90 % of control.

For `CC[N](CC)[Ge]([CH2]C)[CH2]C.CC[N](CC)[Ge]([CH2]C)[CH2]C`, the T/C is 100 % of control under setting [1], 99 % of control under setting [4], 88 % of control under setting [3] and 86 % of control under setting [8].

For the compound `CCCCCC/C=C\C(=O)O`, the T/C (dose: 6.25 mg/kg/injection, schedule: Q01DX009 (ip), vehicle: saline with Tween-80) was 94 % of control and 95 % of control; the T/C under setting [18] was 93 % of control and 104 % of control; the T/C under setting [19] is 93 % of control and 98 % of control; the T/C under setting [20] is 88 % of control.

With `NC(=O)Oc1cccc(OC(N)=O)c1`, the T/C by setting is: (dose: 12.5 mg/kg/injection, schedule: Q01DX009 (ip), vehicle: water) 89 % of control; (dose: 25.0 mg/kg/injection, schedule: Q01DX009 (ip), vehicle: water) 94 % of control; (dose: 50.0 mg/kg/injection, schedule: Q01DX009 (ip), vehicle: water) 93 % of control; (dose: 100.0 mg/kg/injection, schedule: Q01DX009 (ip), vehicle: water) 105 % of control; (dose: 200.0 mg/kg/injection, schedule: Q01DX009 (ip), vehicle: water) 93 % of control; (dose: 400.0 mg/kg/injection, schedule: Q01DX009 (ip), vehicle: water) 107 % of control.

As to `CC[CH2][Sn]([Cl])([Cl])[CH2]CC`, the T/C is 93 % of control and 100 % of control (dose: 0.5 mg/kg/injection, schedule: Q01DX009 (ip), vehicle: saline); 89 % of control and 100 % of control (dose: 1.0 mg/kg/injection, schedule: Q01DX009 (ip), vehicle: saline); 93 % of control (dose: 2.0 mg/kg/injection, schedule: Q01DX009 (ip), vehicle: saline).

As for `O=C(O)/C=C/C(=O)Nc1ccccc1`, the T/C runs as follows: under setting [11], 106 % of control; under setting [12], 96 % of control; under setting [13], 103 % of control.

Turning to `CCCCCCC(=O)NC1=C(N2CC2)C(=O)C(NC(=O)CCCCCC)=C(N2CC2)C1=O`, the T/C reads like this: (dose: 6.25 mg/kg/injection, schedule: Q01DX009 (ip), vehicle: Klucel (hydroxypropylcellulose) (HPC)) 110 % of control; under setting [14], 115 % of control and 120 % of control; under setting [2], 100 % of control.

For the origin of these results see PubChem BioAssay AID192 (DTP/NCI, 2004).
